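96-well plates; 48 h exposure; 5 concentrations. Endpoints by linear interpolation between flanking doses. Not reached: highest tested concentration assigned. Here, GI50 denotes the concentration required for 50% inhibition of growth.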 Active and inactive are the calls of the source. Rule as the data show it: active = GI50 up to about 1.1 µM and inactive = higher.
Tests used:
Experiment in all cases: NCI-60 cell line screen, 48 h
[1] = tested on: EKVX
[2] = tested on: HCT-116
[3] = tested on: HCT-15
[4] = tested on: HT-29
[5] = tested on: K562
[6] = tested on: KM12
[7] = tested on: M14
[8] = tested on: MOLT-4
[9] = tested on: OVCAR-3
[10] = tested on: OVCAR-5
[11] = tested on: SF-268
[12] = tested on: SF-539
[13] = tested on: SK-MEL-28
[14] = tested on: SK-MEL-2
[15] = tested on: SK-OV-3
[16] = tested on: SN12C
[17] = tested on: SW-620
[18] = tested on: U-251
[19] = tested on: UO-31
[20] = tested on: UACC-62

For `C/C(Cl)=N\OC(=O)Nc1ccc(C)cc1`, the GI50 [1] was 18.3 µM (inactive), the GI50 [2] was 19.1 µM (inactive) and the GI50 [3] was 15.4 µM. For the same compound, the GI50 [4] was 22.9 µM (inactive), the GI50 [5] was 9.91 µM (inactive) and the GI50 [6] was 17.2 µM (inactive). The GI50 [7] was 17.2 µM (inactive), the GI50 [8] was > 10 µM (inactive) and the GI50 [9] was 18 µM (inactive). For the same compound, the GI50 [10] was 18.5 µM (inactive), the GI50 [11] was 15.8 µM (inactive) and the GI50 [12] was 18.7 µM (inactive). For the same compound, the GI50 [13] was 14.5 µM (inactive), the GI50 [14] was 18.2 µM (inactive) and the GI50 [15] was 17.3 µM (inactive). The GI50 [16] was 15.7 µM (inactive), the GI50 [17] was 16.8 µM (inactive) and the GI50 [18] was 16.3 µM (inactive). The GI50 [19] was 17.4 µM (inactive).
In the case of `CC(C)(C)O/N=C/c1cc(NC(=S)c2ccsc2)ccc1Cl`, the GI50 [1] is reported as 11.9 µM (inactive), the GI50 [2] is reported as 11.4 µM (inactive) and the GI50 [3] is reported as 14.6 µM. The GI50 [4] was 13.3 µM (inactive), the GI50 [6] was 9.89 µM (inactive) and the GI50 [7] was 16.7 µM (inactive). For the same compound, the GI50 [8] was 5.71 µM (inactive), the GI50 [9] was 14.9 µM (inactive) and the GI50 [10] was 17.7 µM (inactive). For the same compound, the GI50 [11] was 16 µM (inactive), the GI50 [12] was 18 µM (inactive) and the GI50 [13] was 16.7 µM (inactive). For the same compound, the GI50 [14] was 16 µM (inactive), the GI50 [15] was 18.7 µM (inactive) and the GI50 [16] was 17.1 µM (inactive). For the same compound, the GI50 [17] was 17.2 µM (inactive), the GI50 [18] was 15.7 µM (inactive) and the GI50 [20] was 15.5 µM (inactive). The GI50 [19] was 12.2 µM (inactive).
For `O=C1CN=C(C[N+](=O)[O-])c2ccccc21`, the GI50 [1] was > 100 µM (inactive), the GI50 [2] was > 100 µM (inactive) and the GI50 [3] was greater than 100 µM. For the same compound, the GI50 [4] was > 100 µM (inactive), the GI50 [5] was > 100 µM (inactive) and the GI50 [6] was > 100 µM (inactive). For the same compound, the GI50 [7] was > 100 µM (inactive), the GI50 [8] was > 100 µM (inactive) and the GI50 [9] was > 100 µM (inactive). The GI50 [10] was > 100 µM (inactive), the GI50 [11] was > 100 µM (inactive) and the GI50 [12] was > 100 µM (inactive). For the same compound, the GI50 [13] was > 100 µM (inactive), the GI50 [14] was > 100 µM (inactive) and the GI50 [15] was > 100 µM (inactive). For the same compound, the GI50 [16] was > 100 µM (inactive), the GI50 [17] was > 100 µM (inactive) and the GI50 [18] was > 100 µM (inactive). The GI50 [19] was > 100 µM (inactive).
`CC(=O)/C(=C/NC(=S)Nc1ccc(Cl)c(Cl)c1)C(=O)Nc1ccccc1C` was tested, and the GI50 [1] was 21.5 µM (inactive), the GI50 [2] was 33.7 µM (inactive) and the GI50 [3] was 29.6 µM. For the same compound, the GI50 [4] was 22.3 µM (inactive), the GI50 [6] was 24.9 µM (inactive) and the GI50 [7] was 37 µM (inactive). For the same compound, the GI50 [8] was 16 µM (inactive), the GI50 [9] was 24.3 µM (inactive) and the GI50 [10] was 32 µM (inactive). For the same compound, the GI50 [11] was 34.5 µM (inactive), the GI50 [12] was 14.5 µM (inactive) and the GI50 [13] was 44.7 µM (inactive). The GI50 [14] was 28 µM (inactive), the GI50 [15] was 30.9 µM (inactive) and the GI50 [16] was 35.7 µM (inactive). The GI50 [17] was 44.1 µM (inactive), the GI50 [18] was 33 µM (inactive) and the GI50 [20] was 19 µM (inactive). For the same compound, the GI50 [19] was 22.3 µM (inactive).
In the case of `O=C(O)c1nc(-c2ccc(Cl)c(Cl)c2)nc2ccc(Cl)cc12`, the GI50 [1] is reported as > 100 µM (inactive), the GI50 [2] is reported as 66.7 µM (inactive) and the GI50 [3] is reported as greater than 100 µM. The GI50 [4] was > 100 µM (inactive), the GI50 [5] was > 10 µM (inactive) and the GI50 [6] was > 100 µM (inactive). For the same compound, the GI50 [8] was 40.8 µM (inactive), the GI50 [9] was 51.9 µM (inactive) and the GI50 [10] was > 100 µM (inactive). For the same compound, the GI50 [11] was 63 µM (inactive), the GI50 [12] was > 100 µM (inactive) and the GI50 [13] was > 100 µM (inactive). The GI50 [14] was 78 µM (inactive), the GI50 [15] was 17.8 µM (inactive) and the GI50 [16] was > 100 µM (inactive). The GI50 [17] was > 100 µM (inactive), the GI50 [18] was 61.5 µM (inactive) and the GI50 [20] was > 100 µM (inactive). The GI50 [19] was > 100 µM (inactive).
With `CC(=O)OCCOCn1cnc2c(Cl)nc(Cl)nc21` the GI50 [1] was 2.84 µM (inactive), the GI50 [2] was 18.2 µM (inactive) and the GI50 [3] was 3.64 µM. For the same compound, the GI50 [4] was 15.4 µM (inactive), the GI50 [5] was 2.44 µM (inactive) and the GI50 [6] was 18.2 µM (inactive). The GI50 [7] was 17.1 µM (inactive), the GI50 [8] was 19.2 µM (inactive) and the GI50 [9] was 14 µM (inactive). The GI50 [10] was 19.1 µM (inactive), the GI50 [11] was 17.9 µM (inactive) and the GI50 [12] was > 10 µM (inactive). For the same compound, the GI50 [14] was 22.3 µM (inactive), the GI50 [15] was > 10 µM (inactive) and the GI50 [16] was 18.5 µM (inactive). The GI50 [17] was 12.4 µM (inactive), the GI50 [18] was 15 µM (inactive) and the GI50 [20] was 16.1 µM (inactive). The GI50 [19] was 21.2 µM (inactive).

Reference: ChEMBL document CHEMBL1201862, “PubChem BioAssay data set” (2004)
